Literature values as cited in PubChem BioAssay AID1259409 (Chemical Carcinogenesis Research Information System (CCRIS), 2018).

Test system: rodent chemically induced tumor inhibition, incidence and multiplicity
Experiment: CCRIS tumor inhibitor studies
Conditions: Dose [Inhibitor]: 0, Species: MOUSE

Structure (SMILES)	tumour outcome (control, treated, inhibition, significance) (Carcinogen: ETHYL CARBAMATE, 51-79-6, 0.25 MG/G IN 0.005 ML OF 0.9% SALINE ADMINISTERED 30 MIN PRIOR TO CARCINOGEN DOSE (STUDY DURATION: 26 WK), Route [Inhibitor]: INTRAPERITONEAL, Strain/Sex: STRAIN-A/FEMALE, Target Tissue: Type of Lesion: LUNG: ADENOMA, Dose [Carcinogen]: 0.5 MG/G ONCE, Promoter: NONE USED)	tumour outcome (control, treated, inhibition, significance) (Carcinogen: ETHYL CARBAMATE, 51-79-6, 0.25 MG/G IN 0.005 ML OF 0.9% SALINE FIRST DOSE ADMINISTERED 30 MIN PRIOR TO CARCINOGEN DOSE FOLLOWED BY A SECOND DOS, Route [Inhibitor]: INTRAPERITONEAL, Strain/Sex: STRAIN-A/FEMALE, Target Tissue: Type of Lesion: LUNG: ADENOMA, Dose [Carcinogen]: 0.25 MG/G ONCE, Promoter: NONE USED)	tumour outcome (control, treated, inhibition, significance) (Carcinogen: ETHYL CARBAMATE, 51-79-6, 0.25 MG/G IN 0.005 ML OF 0.9% SALINE FIRST DOSE ADMINISTERED 30 MIN PRIOR TO CARCINOGEN DOSE FOLLOWED BY A SECOND DOS, Route [Inhibitor]: INTRAPERITONEAL, Strain/Sex: STRAIN-A/FEMALE, Target Tissue: Type of Lesion: LUNG: ADENOMA, Dose [Carcinogen]: 0.5 MG/G ONCE, Promoter: NONE USED)	tumour outcome (control, treated, inhibition, significance) (Carcinogen: ETHYL CARBAMATE, 51-79-6, 0.5 MG/G IN 0.01 ML OF 0.9% SALINE ADMINISTERED 30 MIN PRIOR TO CARCINOGEN DOSE (STUDY DURATION: 7 MO), Route [Inhibitor]: INTRAPERITONEAL, Strain/Sex: B6C3F1/MALE, Target Tissue: Type of Lesion: LIVER: HEPATOMA, Dose [Carcinogen]: 0.5 MG/G ONCE, Promoter: NONE USED)	tumour outcome (control, treated, inhibition, significance) (Carcinogen: ETHYL CARBAMATE, 51-79-6, 0.5 MG/G IN 0.01 ML OF 0.9% SALINE ADMINISTERED 30 MIN PRIOR TO CARCINOGEN DOSE (STUDY DURATION: 8 MO), Route [Inhibitor]: INTRAPERITONEAL, Strain/Sex: B6C3F1/MALE, Target Tissue: Type of Lesion: LIVER: HEPATOMA, Dose [Carcinogen]: 0.125 MG/G ONCE, Promoter: NONE USED)	tumour outcome (control, treated, inhibition, significance) (Carcinogen: ETHYL CARBAMATE, 51-79-6, 0.5 MG/G IN 0.01 ML OF 0.9% SALINE ADMINISTERED 30 MIN PRIOR TO CARCINOGEN DOSE (STUDY DURATION: 8 MO), Route [Inhibitor]: INTRAPERITONEAL, Strain/Sex: B6C3F1/MALE, Target Tissue: Type of Lesion: LIVER: HEPATOMA, Dose [Carcinogen]: 0.25 MG/G ONCE, Promoter: NONE USED)	tumour outcome (control, treated, inhibition, significance) (Carcinogen: ETHYL CARBAMATE, 51-79-6, 0.5 MG/G IN 0.01 ML OF 0.9% SALINE ADMINISTERED 30 MIN PRIOR TO CARCINOGEN DOSE (STUDY DURATION: 12 MO), Route [Inhibitor]: INTRAPERITONEAL, Strain/Sex: B6C3F1/FEMALE, Target Tissue: Type of Lesion: HARDERIAN GLAND: TUMOR, Dose [Carcinogen]: 0.5 MG/G ONCE, Promoter: NONE USED)	tumour outcome (control, treated, inhibition, significance) (Carcinogen: ETHYL CARBAMATE, 51-79-6, 0.5 MG/G IN 0.01 ML OF 0.9% SALINE ADMINISTERED 30 MIN PRIOR TO CARCINOGEN DOSE (STUDY DURATION: 12 MO), Route [Inhibitor]: INTRAPERITONEAL, Strain/Sex: B6C3F1/FEMALE, Target Tissue: Type of Lesion: LIVER: HEPATOMA, Dose [Carcinogen]: 0.5 MG/G ONCE, Promoter: NONE USED)	tumour outcome (control, treated, inhibition, significance) (Carcinogen: ETHYL CARBAMATE, 51-79-6, 0.5 MG/G IN 0.01 ML OF 0.9% SALINE ADMINISTERED 30 MIN PRIOR TO CARCINOGEN DOSE (STUDY DURATION: 12 MO), Route [Inhibitor]: INTRAPERITONEAL, Strain/Sex: B6C3F1/FEMALE, Target Tissue: Type of Lesion: LUNG: ADENOMA, Dose [Carcinogen]: 0.5 MG/G ONCE, Promoter: NONE USED)	tumour outcome (control, treated, inhibition, significance) (Carcinogen: VINYL CARBAMATE, 15805-73-9, 0.25 MG/G IN 0.005 ML OF 0.9% SALINE ADMINISTERED 30 MIN PRIOR TO CARCINOGEN DOSE (STUDY DURATION: 26 WK), Route [Inhibitor]: INTRAPERITONEAL, Strain/Sex: STRAIN-A/FEMALE, Target Tissue: Type of Lesion: LUNG: ADENOMA, Dose [Carcinogen]: 0.025 MG/G ONCE, Promoter: NONE USED)	tumour outcome (control, treated, inhibition, significance) (Carcinogen: VINYL CARBAMATE, 15805-73-9, 0.5 MG/G IN 0.005 ML OF 0.9% SALINE ADMINISTERED 30 MIN PRIOR TO CARCINOGEN DOSE (STUDY DURATION: 26 WK), Route [Inhibitor]: INTRAPERITONEAL, Strain/Sex: STRAIN-A/FEMALE, Target Tissue: Type of Lesion: LUNG: ADENOMA, Dose [Carcinogen]: 0.025 MG/G ONCE, Promoter: NONE USED)	tumour outcome (control, treated, inhibition, significance) (Carcinogen: VINYL CARBAMATE, 15805-73-9, 0.5 MG/G IN 0.01 ML OF 0.9% SALINE ADMINISTERED 30 MIN PRIOR TO CARCINOGEN DOSE (STUDY DURATION: 7 MO), Route [Inhibitor]: INTRAPERITONEAL, Strain/Sex: B6C3F1/MALE, Target Tissue: Type of Lesion: LIVER: HEPATOMA, Dose [Carcinogen]: 0.025 MG/G ONCE, Promoter: NONE USED)	tumour outcome (control, treated, inhibition, significance) (Carcinogen: VINYL CARBAMATE, 15805-73-9, 0.5 MG/G IN 0.01 ML OF 0.9% SALINE ADMINISTERED 30 MIN PRIOR TO CARCINOGEN DOSE (STUDY DURATION: 8 MO), Route [Inhibitor]: INTRAPERITONEAL, Strain/Sex: B6C3F1/MALE, Target Tissue: Type of Lesion: LIVER: HEPATOMA, Dose [Carcinogen]: 0.003 MG/G ONCE, Promoter: NONE USED)	tumour outcome (control, treated, inhibition, significance) (Carcinogen: VINYL CARBAMATE, 15805-73-9, 0.5 MG/G IN 0.01 ML OF 0.9% SALINE ADMINISTERED 30 MIN PRIOR TO CARCINOGEN DOSE (STUDY DURATION: 8 MO), Route [Inhibitor]: INTRAPERITONEAL, Strain/Sex: B6C3F1/MALE, Target Tissue: Type of Lesion: LIVER: HEPATOMA, Dose [Carcinogen]: 0.008 MG/G ONCE, Promoter: NONE USED)	tumour outcome (control, treated, inhibition, significance) (Carcinogen: VINYL CARBAMATE, 15805-73-9, 0.5 MG/G IN 0.01 ML OF 0.9% SALINE ADMINISTERED 30 MIN PRIOR TO CARCINOGEN DOSE (STUDY DURATION: 12 MO), Route [Inhibitor]: INTRAPERITONEAL, Strain/Sex: B6C3F1/FEMALE, Target Tissue: Type of Lesion: HARDERIAN GLAND: TUMOR, Dose [Carcinogen]: 0.025 MG/G ONCE, Promoter: NONE USED)	tumour outcome (control, treated, inhibition, significance) (Carcinogen: VINYL CARBAMATE, 15805-73-9, 0.5 MG/G IN 0.01 ML OF 0.9% SALINE ADMINISTERED 30 MIN PRIOR TO CARCINOGEN DOSE (STUDY DURATION: 12 MO), Route [Inhibitor]: INTRAPERITONEAL, Strain/Sex: B6C3F1/FEMALE, Target Tissue: Type of Lesion: LIVER: HEPATOMA, Dose [Carcinogen]: 0.025 MG/G ONCE, Promoter: NONE USED)	tumour outcome (control, treated, inhibition, significance) (Carcinogen: VINYL CARBAMATE, 15805-73-9, 0.5 MG/G IN 0.01 ML OF 0.9% SALINE ADMINISTERED 30 MIN PRIOR TO CARCINOGEN DOSE (STUDY DURATION: 12 MO), Route [Inhibitor]: INTRAPERITONEAL, Strain/Sex: B6C3F1/FEMALE, Target Tissue: Type of Lesion: LUNG: ADENOMA, Dose [Carcinogen]: 0.025 MG/G ONCE, Promoter: NONE USED)	tumour outcome (control, treated, inhibition, significance) (Carcinogen: 7,12-DIMETHYLBENZ[A]ANTHRACENE, 57-97-6, 12 NMOL PER REPEATED APPLICATION FOR 20 WK (STUDY DURATION: 20 WK), Route [Inhibitor]: DERMAL, Strain/Sex: CD-1/FEMALE, Target Tissue: Type of Lesion: SKIN: TUMOR, Dose [Carcinogen]: 100 UG ONCE, Promoter: OKADAIC ACID, 78111-17-8)
NC(=S)S	100%, 100%, 0%, not calculated	100%, 100%, 0%, not calculated	100%, 100%, 0%, not calculated	26/26 (100%), 31/31 (100%), 0%, not calculated	24/24 (100%), 24/25 (96%), 4%, not calculated	17/17 (100%), 28/29 (97%), 3%, not calculated	40%, 15%, 62%, not calculated	68%, 19%, 72%, not calculated	48%, 12%, 75%, not calculated	100%, 100%, 0%, not calculated	100%, 100%, 0%, not calculated	24/24 (100%), 29/29 (100%), 0%, not calculated	29/29 (100%), 27/27 (100%), 0%, not calculated	23/23 (100%), 27/27 (100%), 0%, not calculated	68%, 22%, 68%, not calculated	96%, 30%, 69%, not calculated	54%, 9%, 83%, not calculated	–
CC(C)[C@H]1C=C[C@H](O)CC1	–	–	–	–	–	–	–	–	–	–	–	–	–	–	–	–	–	87%, 53%, 39%, not calculated
